Source: ChEMBL document CHEMBL1129699, “Synthesis of furo[2,3-c]pyran--D-thymidine” (Bioorg Med Chem Lett, 1996)

How the values were obtained:
CEM-SS [1] = assay: Compound was tested in vitro for its cytotoxicity in CEM-SS cells; format: functional; details: Homo sapiens
CEM-SS [2] = assay: Compound was tested in vitro for its anti-HIV activity in CEM-SS cells; format: functional, cell-based; details: Homo sapiens

Row | IC50 (CEM-SS [2]) | Structure (SMILES) | CC50 (CEM-SS [1])
1 | > 100 µM | Cc1cn(C2CC3CC(CI)OCC3(CO)O2)c(=O)[nH]c1=O (centres undefined) | > 100 µM
2 | > 100 µM | Cc1cn(C2CC3CC(C)OCC3(CO)O2)c(=O)[nH]c1=O (centres undefined) | > 100 µM
